Experimental data as given in patent US6573293B2, “Pyrrole substituted 2-indolinone protein kinase inhibitors” (Sugen, Inc., priority 2000, dated 2003).

Columns and labels:
[1] = biological target: T1, GST-Flk1 (Mus musculus, UniProt P35918); test: GST-FLK-1 bioassay (bio flkGST); type: biochemical
T1 construct: GST-Flk1cd purified from sf9 recombinant baculovirus transformation; host or cells: Sf9 (baculovirus)

[2] = biological target: GST-FGFR1 (Homo sapiens, UniProt P11362); test: FGFR1 bioassay (bio PGFR1); type: biochemical
Chain of GST-FGFR1 (P11362 22-822): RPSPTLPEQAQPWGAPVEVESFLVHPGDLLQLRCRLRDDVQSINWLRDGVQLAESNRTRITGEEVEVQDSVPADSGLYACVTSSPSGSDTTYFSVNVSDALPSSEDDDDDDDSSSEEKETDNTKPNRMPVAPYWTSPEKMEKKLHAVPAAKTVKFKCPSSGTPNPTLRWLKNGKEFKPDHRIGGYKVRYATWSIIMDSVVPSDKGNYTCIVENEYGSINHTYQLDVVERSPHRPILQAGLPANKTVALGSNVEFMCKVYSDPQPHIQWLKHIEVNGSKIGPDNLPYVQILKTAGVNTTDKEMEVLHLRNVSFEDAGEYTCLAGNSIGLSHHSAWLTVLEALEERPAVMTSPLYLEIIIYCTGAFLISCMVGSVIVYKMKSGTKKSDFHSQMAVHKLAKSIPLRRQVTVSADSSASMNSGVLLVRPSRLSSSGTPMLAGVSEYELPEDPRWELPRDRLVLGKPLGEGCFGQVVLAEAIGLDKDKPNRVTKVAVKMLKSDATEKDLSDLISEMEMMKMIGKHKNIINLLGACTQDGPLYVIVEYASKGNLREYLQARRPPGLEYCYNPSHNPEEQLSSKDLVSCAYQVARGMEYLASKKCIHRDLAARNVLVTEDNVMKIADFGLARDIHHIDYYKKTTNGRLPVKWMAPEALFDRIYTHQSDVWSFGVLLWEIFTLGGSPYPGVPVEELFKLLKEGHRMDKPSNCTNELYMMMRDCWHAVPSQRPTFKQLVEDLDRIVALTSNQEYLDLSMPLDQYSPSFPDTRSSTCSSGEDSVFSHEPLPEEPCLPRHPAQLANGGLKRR

[3] = biological target: T2, PDGFR-β (Homo sapiens, UniProt P09619); test: PDGFR bioassay (bio PDGF); type: biochemical
T2 construct: host or cells: NIH 3T3
T2 sequence (P09619 33-1106): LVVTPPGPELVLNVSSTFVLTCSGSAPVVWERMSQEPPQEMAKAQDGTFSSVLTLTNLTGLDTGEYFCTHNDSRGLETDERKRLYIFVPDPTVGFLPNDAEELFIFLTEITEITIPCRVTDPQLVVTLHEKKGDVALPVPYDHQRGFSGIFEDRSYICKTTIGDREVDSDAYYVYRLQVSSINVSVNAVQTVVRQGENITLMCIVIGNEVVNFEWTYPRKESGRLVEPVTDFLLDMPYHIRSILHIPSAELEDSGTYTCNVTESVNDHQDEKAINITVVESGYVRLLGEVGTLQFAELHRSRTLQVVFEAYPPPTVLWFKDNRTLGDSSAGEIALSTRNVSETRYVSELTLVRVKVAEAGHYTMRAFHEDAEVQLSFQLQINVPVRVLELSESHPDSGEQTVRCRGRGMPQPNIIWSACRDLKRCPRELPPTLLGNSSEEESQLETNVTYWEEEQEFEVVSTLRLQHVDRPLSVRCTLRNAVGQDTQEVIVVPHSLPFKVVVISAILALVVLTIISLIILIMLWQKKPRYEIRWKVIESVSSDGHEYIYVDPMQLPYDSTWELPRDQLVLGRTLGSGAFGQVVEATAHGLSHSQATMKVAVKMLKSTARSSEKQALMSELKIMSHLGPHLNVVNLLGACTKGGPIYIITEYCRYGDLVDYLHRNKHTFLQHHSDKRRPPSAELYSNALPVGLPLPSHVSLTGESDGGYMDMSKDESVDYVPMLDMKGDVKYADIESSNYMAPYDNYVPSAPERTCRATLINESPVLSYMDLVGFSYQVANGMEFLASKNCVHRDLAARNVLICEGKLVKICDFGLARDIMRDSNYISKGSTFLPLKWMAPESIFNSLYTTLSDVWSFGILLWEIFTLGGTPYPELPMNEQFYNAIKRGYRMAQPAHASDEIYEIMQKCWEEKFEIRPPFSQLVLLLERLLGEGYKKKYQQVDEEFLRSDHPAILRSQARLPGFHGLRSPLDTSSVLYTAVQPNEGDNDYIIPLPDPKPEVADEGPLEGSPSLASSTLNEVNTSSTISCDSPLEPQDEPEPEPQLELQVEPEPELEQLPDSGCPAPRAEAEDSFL

[4] = biological target: T3, EGFR (Homo sapiens, UniProt P00533); test: EGFR bioassay (bio EGF); type: biochemical
T3 construct: A431 cell lysate (SUGEN, Inc.); host or cells: A431
T3 sequence (P00533 25-1210): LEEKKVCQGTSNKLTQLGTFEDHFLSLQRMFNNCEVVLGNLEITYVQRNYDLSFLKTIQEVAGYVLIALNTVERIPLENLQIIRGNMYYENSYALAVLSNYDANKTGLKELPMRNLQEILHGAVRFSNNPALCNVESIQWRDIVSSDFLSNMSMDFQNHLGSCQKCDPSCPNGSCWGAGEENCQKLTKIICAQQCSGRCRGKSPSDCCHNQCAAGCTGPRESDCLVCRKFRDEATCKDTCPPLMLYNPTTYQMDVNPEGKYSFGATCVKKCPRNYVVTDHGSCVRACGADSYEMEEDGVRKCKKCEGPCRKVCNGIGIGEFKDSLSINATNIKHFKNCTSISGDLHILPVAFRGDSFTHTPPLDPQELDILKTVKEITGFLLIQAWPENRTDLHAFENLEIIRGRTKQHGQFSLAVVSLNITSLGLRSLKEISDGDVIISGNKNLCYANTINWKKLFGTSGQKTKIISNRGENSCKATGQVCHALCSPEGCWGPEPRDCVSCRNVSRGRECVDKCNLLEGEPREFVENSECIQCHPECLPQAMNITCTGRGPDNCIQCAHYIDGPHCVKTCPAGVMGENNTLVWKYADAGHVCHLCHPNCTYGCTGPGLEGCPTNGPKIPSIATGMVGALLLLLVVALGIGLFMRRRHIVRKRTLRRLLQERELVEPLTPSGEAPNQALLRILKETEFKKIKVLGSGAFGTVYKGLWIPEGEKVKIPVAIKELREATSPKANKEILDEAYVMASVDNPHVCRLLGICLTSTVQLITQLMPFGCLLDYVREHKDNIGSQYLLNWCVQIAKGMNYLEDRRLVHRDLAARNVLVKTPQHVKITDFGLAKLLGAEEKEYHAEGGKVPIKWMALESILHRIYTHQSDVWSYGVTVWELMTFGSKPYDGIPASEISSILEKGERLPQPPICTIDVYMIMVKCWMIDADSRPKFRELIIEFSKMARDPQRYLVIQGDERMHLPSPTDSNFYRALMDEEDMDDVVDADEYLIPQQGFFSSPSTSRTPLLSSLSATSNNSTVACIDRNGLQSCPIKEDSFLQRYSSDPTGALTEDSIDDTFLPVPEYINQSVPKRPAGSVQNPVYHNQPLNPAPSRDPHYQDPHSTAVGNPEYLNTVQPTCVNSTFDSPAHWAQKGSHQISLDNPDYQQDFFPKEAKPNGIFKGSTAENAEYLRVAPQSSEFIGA

[5] = biological target: T3, EGFR; test: cell EGF assay; type: cell-based
Procedure: Several of the assays described herein are performed in an ELISA (Enzyme-Linked Immunosorbent Sandwich Assay) format (Voller, et al., 1980, “Enzyme-Linked Immunosorbent Assay,” Manual of Clinical Immunology, 2d ed., Rose and Friedman, Am. Soc. Of Microbiology, Washington, D.C., pp. 359-371). The general procedure is as follows: a compound is introduced to cells expressing the test kinase, either naturally or recombinantly, for a selected period of time after which, if the test kinase is a receptor, a ligand known to activate the receptor is added. The cells are lysed and the lysate is transferred to the wells of an ELISA plate previously coated with a specific antibody recognizing the substrate of the enzymatic phosphorylation reaction. Non-substrate components of the cell lysate are washed away and the amount of phosphorylation on the substrate is detected with an antibody specifically recognizing phosphotyrosine compared with control cells that were not contacted with a test compound.

[6] = biological target: T4, HA epitope-tagged full length pyk2 (FL.pyk2-HA) (Homo sapiens, UniProt Q14289); test: PYK2 bioassay; type: biochemical; conditions: read-out: bio pyk2 IC50
T4 construct: host or cells: Sf9
T4 sequence (Q14289 whole entry): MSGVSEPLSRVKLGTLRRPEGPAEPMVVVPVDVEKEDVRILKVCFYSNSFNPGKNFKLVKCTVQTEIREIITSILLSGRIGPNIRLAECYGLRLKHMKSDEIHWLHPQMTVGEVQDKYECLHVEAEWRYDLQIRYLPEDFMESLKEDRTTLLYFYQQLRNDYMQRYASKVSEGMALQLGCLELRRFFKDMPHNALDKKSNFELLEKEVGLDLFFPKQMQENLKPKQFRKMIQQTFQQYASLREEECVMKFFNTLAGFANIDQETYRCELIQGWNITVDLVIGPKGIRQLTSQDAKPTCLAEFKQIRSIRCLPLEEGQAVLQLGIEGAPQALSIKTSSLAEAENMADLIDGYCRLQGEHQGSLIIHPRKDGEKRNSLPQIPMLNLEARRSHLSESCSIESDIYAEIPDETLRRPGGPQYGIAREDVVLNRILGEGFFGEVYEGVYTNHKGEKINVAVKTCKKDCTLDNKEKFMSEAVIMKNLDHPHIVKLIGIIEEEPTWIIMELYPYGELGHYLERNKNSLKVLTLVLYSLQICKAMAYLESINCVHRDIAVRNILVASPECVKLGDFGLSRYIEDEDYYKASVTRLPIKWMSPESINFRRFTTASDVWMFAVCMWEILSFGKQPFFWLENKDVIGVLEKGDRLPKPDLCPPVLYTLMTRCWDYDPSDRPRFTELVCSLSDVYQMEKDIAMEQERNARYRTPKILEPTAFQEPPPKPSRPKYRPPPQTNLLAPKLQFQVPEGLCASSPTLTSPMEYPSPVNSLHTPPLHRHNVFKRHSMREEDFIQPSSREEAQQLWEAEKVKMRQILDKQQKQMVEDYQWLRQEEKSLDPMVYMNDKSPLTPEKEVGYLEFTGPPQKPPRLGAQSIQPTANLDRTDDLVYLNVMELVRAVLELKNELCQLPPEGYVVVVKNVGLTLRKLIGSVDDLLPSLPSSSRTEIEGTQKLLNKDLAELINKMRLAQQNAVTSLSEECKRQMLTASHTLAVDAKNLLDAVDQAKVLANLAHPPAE
Procedure: This assay is used to measure the in vitro kinase activity of HA epitope-tagged full length pyk2 (FL.pyk2-HA) in an ELISA assay.
Corning 96-well Elisa plates.
12CA5 monoclonal anti-HA antibody (SUGEN, Inc.)
PBS (Dulbecco's Phosphate-Buffered Saline (Gibco Catalog #450-1300EB)
Adjust pH to 7.2, bring volume to 1 L.
FL.pyk2-HA from sf9 cell lysates (SUGEN, Inc.).
Just prior to use, add 0.1 ml 1M DTT.
NUNC 96-well V bottom polypropylene plates.
ABTS, Moss, Cat. No. ABST-2000.
Coat Corning 96 well ELISA plates with 0.5 μg per well 12CA5 anti-HA antibody in 100 μl PBS. Store overnight at 4° C.
Remove unbound HA antibody from wells by inverting plate. Wash plate with dH2O. Pat the plate on a paper towel to remove excess liquid.
Add 150 μl Blocking Buffer to each well. Incubate, with shaking, for 30 min at room temperature.
Dilute lysate in PBS (1.5 μg lysate/100 μl PBS).
Add 100 μl of diluted lysate to each well. Shake at room temperature for 1 hr.
Add 50 μl of 2×kinase Buffer to ELISA plate containing captured pyk2-HA.
Add 25 μL of 400 μM test compound in 4% DMSO to each well. For control wells use 4% DMSO alone.
Add 25 μL of 0.5 M EDTA to negative control wells.
Add 25 μl of 20 μM ATP to all wells. Incubate, with shaking, for 10 minutes.
Stop reaction by adding 25 μl 500 mM EDTA (pH 8.0) to all wells.
Add 100 μL HRP conjugated anti-Ptyr diluted 1:6000 in Antibody Dilution Buffer to each well. Incubate, with shaking, for 1 hr. at room temperature.
Wash plate 3×with TBST and 1×with PBS.
Add 100 μL of ABST solution to each well.
If necessary, stop the development reaction by adding 20 μL 10% SDS to each well.

[7] = biological target: T5, HER-2 kinase (Homo sapiens, UniProt P04626); test: Cellular HER-2 kinase assay; type: cell-based; conditions: read-out: Her2 Kinase IC50
T5 construct: Use EGFr/HER-2 chimera/3T3-C7 cell line for this assay; It is expressed in mouse NIH 3T3 clone C7 cells; P00533 (Epidermal growth factor receptor)
T5 sequence (P04626 720-987 limits assumed): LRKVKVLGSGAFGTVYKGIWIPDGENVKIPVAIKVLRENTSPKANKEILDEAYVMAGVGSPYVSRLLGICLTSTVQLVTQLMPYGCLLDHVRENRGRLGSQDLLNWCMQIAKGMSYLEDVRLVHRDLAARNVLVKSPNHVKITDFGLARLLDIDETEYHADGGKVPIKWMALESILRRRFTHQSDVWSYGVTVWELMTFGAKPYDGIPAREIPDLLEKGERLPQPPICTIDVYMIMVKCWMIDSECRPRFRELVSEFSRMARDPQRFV

[8] = biological target: T6, human cdk2/cyclin A (Homo sapiens, UniProt P24941); test: CDK2/cyclin A scintillation proximity assay (cdk2spa); type: biochemical; conditions: read-out: cdk2spa C50
T6 construct: host or cells: Sf9

T1 sequence (P35918 784-1345 limits assumed): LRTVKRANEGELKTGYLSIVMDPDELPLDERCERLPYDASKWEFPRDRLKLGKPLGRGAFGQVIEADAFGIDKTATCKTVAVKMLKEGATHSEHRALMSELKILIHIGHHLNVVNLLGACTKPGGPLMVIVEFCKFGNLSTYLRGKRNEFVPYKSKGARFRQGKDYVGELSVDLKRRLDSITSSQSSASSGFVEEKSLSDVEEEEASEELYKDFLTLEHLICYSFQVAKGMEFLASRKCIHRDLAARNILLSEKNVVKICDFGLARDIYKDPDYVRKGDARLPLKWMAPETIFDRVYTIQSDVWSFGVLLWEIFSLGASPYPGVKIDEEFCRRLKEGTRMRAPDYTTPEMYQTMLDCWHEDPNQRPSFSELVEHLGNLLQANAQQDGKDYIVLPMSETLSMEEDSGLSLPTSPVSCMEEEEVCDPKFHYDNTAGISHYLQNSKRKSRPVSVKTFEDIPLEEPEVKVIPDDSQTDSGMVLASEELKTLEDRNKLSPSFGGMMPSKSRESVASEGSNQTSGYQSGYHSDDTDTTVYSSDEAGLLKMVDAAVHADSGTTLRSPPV

Cc1cc(C(=O)O)[nH]c1/C=C1\C(=O)Nc2ccccc21 [Example 1, 4-Methyl-5-(2-oxo-1,2-dihydroindol-3-ylidenemethyl)-1H-pyrrole-2-carboxylic acid]
IC50 [1]: 57.7 µM
IC50 [2]: 15.2 µM
IC50 [3]: > 100 µM
IC50 [4]: > 100 µM
IC50 [5]: > 100 µM
IC50 [6]: > 100 µM

COC(=O)c1cc(C)c(/C=C2\C(=O)Nc3ccccc32)[nH]1 [Example 3, 4-Methyl-5-(2-oxo-1,2-dihydroindol-3-ylidenemethyl)-1H-pyrrole-2-carboxylic acid methyl ester]
IC50 [1]: 9.85 µM
IC50 [2]: 9.62 µM
IC50 [3]: > 100 µM
IC50 [4]: > 100 µM
IC50 [5]: > 100 µM
IC50 [6]: > 100 µM

CCOC(=O)c1cc(C)c(/C=C2\C(=O)Nc3ccc(Cl)cc32)[nH]1 [Example 4, 5-(5-Chloro-2-oxo-1,2-dihydroindol-3-ylidenemethyl)-4-methyl-1H-pyrrole-2-carboxlyc acid ethyl ester]
IC50 [1]: 3.57 µM
IC50 [2]: > 20 µM
IC50 [3]: > 100 µM
IC50 [4]: > 100 µM
IC50 [5]: > 100 µM
IC50 [7]: > 100 µM

Cc1cc(C(=O)O)[nH]c1/C=C1\C(=O)Nc2ccc(Cl)cc21 [Example 5, 5-(5-Chloro-2-oxo-1,2-dihydroindol-3-ylidenemethyl)-4-methyl-1H-pyrrole-2-carboxylic acid]
IC50 [1]: 8.3 µM
IC50 [2]: 16.1 µM
IC50 [3]: > 100 µM
IC50 [4]: > 100 µM
IC50 [5]: > 100 µM
IC50 [7]: > 100 µM

CCN(CC)CCNC(=O)c1[nH]c(/C=C2\C(=O)Nc3ccc(Br)cc32)c2c1CCCC2 [Example 17, 3-(5-Bromo-2-oxo-1,2-dihydroindol-3-ylidenemethyl)-4,5,6,7-tetrahydro-2H-isoindole-1-carboxylic acid (2-diethylaminoethyl)amide]
IC50 [1]: 8.25 µM
IC50 [2]: 2.47 µM
IC50 [3]: 94.4 µM
IC50 [4]: 0.83 µM
IC50 [5]: 11.5 µM
IC50 [7]: 15.9 µM
IC50 [8]: > 10 µM

CCN(CC)CCCNC(=O)c1c(C)[nH]c(/C=C2\C(=O)Nc3ccc(Br)cc32)c1-c1ccccc1 [Example 47, 5-(5-Bromo-2-oxo-1,2-dihydroindol-3-ylidenemethyl)-2-methyl-4-phenyl-1H-pyrrole-3-carboxylic acid (3-diethylaminopropyl)amide]
IC50 [1]: 0.08 µM
IC50 [2]: 1.56 µM
IC50 [3]: 0.06 µM
IC50 [4]: 11.4 µM
IC50 [5]: 41.5 µM
IC50 [7]: 8.4 µM
IC50 [6]: 1.05 µM

Cc1[nH]c(/C=C2\C(=O)Nc3ccc(Br)cc32)c(C)c1C(=O)NCCN(C)C [Example 48, 5-(5-Bromo-2-oxo-1,2-dihydroindol-3-ylidenemethyl)-2,4-dimethyl-1H-pyrrole-3-carboxylic acid (2-dimethylamino-ethyl)amide]
IC50 [1]: 0.006 µM
IC50 [2]: 0.3 µM
IC50 [3]: < 0.78 µM
IC50 [4]: 17.9 µM
IC50 [5]: 21.6 µM
IC50 [7]: 7.93 µM
IC50 [6]: 0.09 µM

Cc1[nH]c(/C=C2\C(=O)Nc3ccc(S(=O)(=O)N(C)C)cc32)c(C)c1C(=O)NCCN1CCCC1 [Example 82, 5-(5-Dimethylsulfamoyl-2-oxo-1,2-dihydroindol-3-ylidenemethyl)-2,4-dimethyl-1H-pyrrole-3-carboxylic acid (2-pyrrolidin-1-yl-ethyl)amide]
IC50 [1]: 2.03 µM
IC50 [2]: 7.69 µM
IC50 [3]: 6.88 µM
IC50 [6]: 0.31 µM

Cc1[nH]c(/C=C2\C(=O)Nc3ccc(S(=O)(=O)Nc4cccc(Cl)c4)cc32)c(C)c1C(=O)NCCN1CCCC1 [Example 83, 5-[5-(3-Chloro-phenylsulfamoyl)-2-oxo-1,2-dihydroindol-3-ylidenemethyl]-2,4-dimethyl-1H-pyrrole-3-carboxylic acid (2-pyrrolidin-1-yl-ethyl)amide]
IC50 [1]: 0.34 µM
IC50 [2]: 0.41 µM
IC50 [3]: 9.46 µM
IC50 [4]: 2.18 µM
IC50 [7]: 86.9 µM
IC50 [6]: 0.008 µM

Cc1[nH]c(/C=C2\C(=O)Nc3ccc(S(=O)(=O)Nc4cccnc4)cc32)c(C)c1C(=O)NCCN1CCCC1 [Example 84, 2,4-Dimethyl-5-[2-oxo-5-(pyridin-3-ylsulfamoyl)-1,2-dihydroindol-3-ylidenemethyl]-1H-pyrrole-3-carboxylic acid (2-pyrrolidin-1-yl-ethyl)amide]
IC50 [1]: 1.38 µM
IC50 [3]: 12.5 µM
IC50 [4]: 67.2 µM
IC50 [7]: 5.86 µM
IC50 [6]: 0.006 µM

Cc1[nH]c(/C=C2\C(=O)Nc3cccc(CCO)c32)c(C)c1C(=O)N1CCN(C)CC1 [Example 85, 3-[3,5-Dimethyl-4-(4-methyl-piperazine-1-carbonyl)-1H-pyrrol-2-ylmethylene]-4-(2-hydroxy-ethyl)-1,3-dihydroindol-2-one]
IC50 [1]: 0.2 µM
IC50 [2]: 0.8 µM
IC50 [3]: 2.59 µM
IC50 [4]: > 100 µM
IC50 [7]: 3.76 µM

Cc1[nH]c(/C=C2\C(=O)Nc3ccc(S(=O)(=O)Nc4ccccc4)cc32)c(C)c1C(=O)N1CCN(C)CC1 [Example 86, 3-[3,5-Dimethyl-4-(4-methyl-piperazine-1-carbonyl)-1H-pyrrol-2-ylmethylene]-2-oxo-2,3-dihydro-1H-indole-5-sulfonic acid phenylamide]
IC50 [1]: 1.45 µM
IC50 [2]: 1.3 µM
IC50 [3]: 19.6 µM
IC50 [4]: 41.8 µM
IC50 [6]: 3.58 µM

CCN(CC)CCNC(=O)c1c(C)[nH]c(/C=C2\C(=O)Nc3ccc(S(=O)(=O)N(C)C)cc32)c1C [Example 87, 5-(5-Dimethylsulfamoyl-2-oxo-1,2-dihydroindol-3-ylidenemethyl)-2,4-dimethyl-1H-pyrrole-3-carboxylic acid (2-diethylaminoethyl)amide]
IC50 [1]: 3.27 µM
IC50 [2]: 7.56 µM
IC50 [3]: 6.46 µM
IC50 [7]: 9.1 µM
IC50 [6]: 0.17 µM

CCN(CC)CCNC(=O)c1c(C)[nH]c(/C=C2\C(=O)Nc3ccc(S(=O)(=O)Nc4cccc(Cl)c4)cc32)c1C [Example 88, 5-[5-(3-Chloro-phenylsulfamoyl)-2-oxo-1,2-dihydroindol-3-ylidenemethyl]-2,4-dimethyl-1H-pyrrole-3-carboxylic acid (2-diethylaminoethyl)amide]
IC50 [1]: 0.35 µM
IC50 [2]: 1.18 µM
IC50 [3]: 8.06 µM
IC50 [4]: 2.36 µM
IC50 [7]: > 100 µM
IC50 [6]: 0.09 µM

CN(C)CCNC(=O)c1[nH]c(/C=C2\C(=O)Nc3ccc(Br)cc32)c2c1CCCC2 [Example 89, 3-(5-Bromo-2-oxo-1,2-dihydro-indol-3-ylidenemethyl)-4,5,6,7-tetrahydro-2H-isoindole-1-carboxylic acid (2-dimethylamino-ethyl)-amide]
IC50 [1]: 7.84 µM
IC50 [3]: 47.6 µM
IC50 [4]: 8.53 µM
IC50 [5]: 9.67 µM
IC50 [7]: 16 µM

CNS(=O)(=O)c1ccc2c(c1)C(=Cc1[nH]cc(C(=O)O)c1C)C(=O)N2 [Example 115, 4-Methyl-5-(5-methylsulfamoyl-2-oxo-1,2-dihydro-indol-3-ylidenemethyl)-1H-pyrrole-3-carboxylic acid]
IC50 [4]: > 100 µM
IC50 [8]: 0.006 µM

CCOC(=O)CNC(=O)c1c[nH]c(C=C2C(=O)Nc3ccc(S(=O)(=O)NC)c(C)c32)c1C [Example 116, {[4-Methyl-5-(4-methyl-5-methylsulfamoyl-2-oxo-1,2-dihydro-indol-3-ylidenemethyl)-1H-pyrrole-3-carbonyl]-amino}-acetic acid ethyl ester]
IC50 [4]: > 100 µM
IC50 [8]: < 0.0005 µM

CCOC(=O)CNC(=O)c1c[nH]c(/C=C2\C(=O)Nc3ccc(S(=O)(=O)NC)cc32)c1C [Example 117, {[4-Methyl-5-(5-methylsulfamoyl-2-oxo-1,2-dihydro-indol-3-ylidenemethyl)-1H-pyrrole-3-carbonyl]-amino}-acetic acid ethyl ester]
IC50 [1]: 0.91 µM
IC50 [3]: 12.9 µM
IC50 [8]: 0.006 µM

CNS(=O)(=O)c1ccc2c(c1)C(=Cc1[nH]cc(C(=O)NCC(=O)O)c1C)C(=O)N2 [Example 118, {[4-Methyl-5-(5-methylsulfamoyl-2-oxo-1,2-dihydro-indol-3-ylidenemethyl)-1H-pyrrole-3-carbonyl]-amino}-acetic acid]
IC50 [4]: > 100 µM
IC50 [8]: 0.002 µM

CNS(=O)(=O)c1ccc2c(c1)/C(=C/c1[nH]cc(C(=O)N3CCCCC3)c1C)C(=O)N2 [Example 119, 3-[3-Methyl-4-(piperidine-1-carbonyl)-1H-pyrrol-2-ylmethylene]-2-oxo-2,3-dihydro-1H-indole-5-sulfonic acid methylamide]
IC50 [1]: 1.38 µM
IC50 [3]: 61.6 µM
IC50 [4]: > 100 µM
IC50 [7]: > 100 µM
IC50 [8]: < 0.0005 µM
